Test results: PMC6580371 (ACS Medicinal Chemistry Letters, 2019)
Like-named read-outs stand apart in the source and are kept apart here.

Key:
[1] = format: in vivo; conditions: all species (rat, dog, monkey)
in vivo [2] = conditions: dog, po, 2 mg/kg
in vivo [3] = conditions: monkey, iv
[4] = format: in vitro ADME; conditions: rat
[5] = format: in vitro ADME; conditions: monkey
[6] = format: in vitro ADME; conditions: human

For `O=C(N[C@H]1CCc2cc(F)cc(F)c2NC1=O)c1n[nH]c(Cc2ccccc2)n1` [Compound 6, (S)-5-benzyl-N-(7,9-difluoro-2-oxo-2,3,4,5-tetrahydro-1H-benzo[b]azepin-3-yl)-1H-1,2,4-triazole-3-carboxamide], the “clearance as % liver blood flow” value [1] was at most 35 % liver blood flow, the Cmax (in vivo [2]) was 910 ± 130 ng/mL and the clearance (in vivo [3]) was 6.4 ± 0.5 mL/min/kg. For the same compound, the turnover in hepatocytes [4] was “moderate turnover”, the turnover in hepatocytes [5] was “low turnover” and the turnover in hepatocytes [6] was “low turnover”. The predicted human clearance was “low clearance”, the predicted human volume was “moderate volume” and the “predicted human AUC” value (40 mg twice daily) was 1.7 µg·h/mL. The “predicted human AUC” value (273 mg daily) was 11.7 µg·h/mL and the “predicted human terminal half-life” value (human) was about 3.3 h.
